Test results: patent US9598383B2, “Reactive oxygen species-based prodrugs” (The Regents of the University of California, priority 2013, dated 2017)

Experiments:
[1] = Stability of model compounds in simulated physiological conditions, analytical HPLC; assay type: physicochemical; conditions: for stability: HEPES, RT, 24 h; for stability at physiological pH: 100 mM TRIS-HCl; for stability in the presence of glutathione: glutathione (9 equiv)
[2] = H2O2-triggered deprotection of model compounds (conversion to acid), analytical HPLC; assay type: physicochemical; conditions: for percent conversion to acid: incubation at RT; for deprotection, conversion to the acid: excess of H2O2 (27 equiv) in buffer, after 4 h of incubation
Method: To be effective prodrugs must have good water solubility and be rapidly converted to the active drug under the desired stimulus. These two aspects were evaluated first in model systems. […] An authentic HPLC trace of each was obtained and was then compared to a trace obtained after 1 h and 4 h of incubation. […] The stability of each compound was tested at physiological pH (100 mM TRIS-HCl, pH 7.2) as well as in the presence of glutathione (9 equiv).
Injections consisted of 100 μL, of a 50 μM.

COX-1 = test: COX inhibition, commercially available fluorescent assay (COX-1); assay type: biochemical; conditions: COX-1 isoform
Method: The efficacy of the prodrug to inhibit its target was also evaluated. For proIBU a commercially available fluorescent assay was utilized. ProIBU was tested against both isoforms of the COX enzyme. […] Table 1 and FIG. 3.

[3] = Hydrolytic stability of prodrugs in buffer and with biologically relevant nucleophiles, analytical HPLC
Method: Initially, an authentic HPLC trace was obtained of proIBU and proMMPi, and a second trace was obtained after incubating in buffer (100 mM TRIS-HCl, pH 7.4) for 24 h at 37° C. Each prodrug was incubated in the same conditions, with the addition of 20 equivalents of lysine, serine and glutathione, all in distinct trials.
All compounds were initially dissolved in DMSO and further diluted with specified buffer. Injections consisted of 100 μl, of a 1 mM solution.

Compound | stability ([1]; pH 7.2 + GSH (9 equiv)) [%] | stability ([1]; pH 7.2) [%] | stability ([1]; pH 8.0) [%] | percent conversion to acid ([2]; 1 h) [%] | percent conversion to acid ([2]; 4 h) [%] | stability at physiological pH ([1]; pH 7.2) | stability in the presence of glutathione [1] | deprotection, conversion to the acid [2] | inhibition of COX enzyme (COX-1) | hydrolytic stability ([3]; 100 mM TRIS-HCl, pH 7.4, 24 h at 37° C., 20 equivalents of glutathione) [%] | hydrolytic stability ([3]; 100 mM TRIS-HCl, pH 7.4, 24 h at 37° C., 20 equivalents of lysine) [%] | hydrolytic stability ([3]; 100 mM TRIS-HCl, pH 7.4, 24 h at 37° C., 20 equivalents of serine) [%] | hydrolytic stability ([3]; buffer (100 mM TRIS-HCl, pH 7.4), 24 h at 37° C.) [%]
O=C1OCCN1C(=O)c1ccccc1 [Compound 1, 3-benzoyloxazolidin-2-one] | >99 | >99 | >99 | 14.6 | 25.6 |  |  |  |  |  |  |  | 
O=C1SCCN1C(=O)c1ccccc1 [Compound 2, 3-benzoylthiazolidin-2-one] | >99 | 88.6 | 82.5 | 13.6 | 37.8 |  |  |  |  |  |  |  | 
O=C(c1ccccc1)N1CCOC1=S [Compound 3, Phenyl(2-thioxooxazolidin-3-yl)methanone] | 59.5 | 95.5 | 41.2 | 44.7 | >99 | poorer stability | poorer stability | full deprotection |  |  |  |  | 
O=C(c1ccccc1)N1CCSC1=S [Compound 4, Phenyl(2-thioxothiazolidin-3-yl)methanone] | 77.6 | 57.0 | 54.8 | 48.5 | >99 | poorer stability | poorer stability | full deprotection |  |  |  |  | 
O=C(Cc1ccccc1)N1CCOC1=O [Compound 5, 3-(2-phenylacetyl)oxazolidin-2-one] | 86.3 | >99 | 94.5 | <1 | <1 |  |  |  |  |  |  |  | 
O=C(Cc1ccccc1)N1CCSC1=O [Compound 6, 3-(2-phenylacetyl)thiazolidin-2-one] | >99 | >99 | >99 | 23.3 | 67.8 |  |  |  |  |  |  |  | 
O=C(Cc1ccccc1)N1CCOC1=S [Compound 7, 2-phenyl-1-(2-thioxooxazolidin-3-yl)ethan-1-one] | 45.7 | 54.6 | 24.4 | 81.6 | >99 | poorer stability | poorer stability | full deprotection |  |  |  |  | 
O=C(Cc1ccccc1)N1CCSC1=S [Compound 8, 2-phenyl-1-(2-thioxothiazolidin-3-yl)ethan-1-one] | 39.5 | 32.5 | <1 | 87.6 | >99 | poorer stability | poorer stability | full deprotection |  |  |  |  | 
CC(C)Cc1ccc(C(C)C(=O)N2CCSC2=O)cc1 (stereo not drawn) [proIBU, 3-(2-(4-isobutylphenyl)propanoyl)thiazolidin-2-one] |  |  |  |  |  |  |  |  | little to no inhibition | > 99 | > 99 | > 99 | > 99
